The structures appear in SMILES notation.

Usually logD stands for lipophilicity at a set pH, counting ionised and neutral species. A word on the clearance: it is a measure of how efficiently the substance is removed, as volume per time. By AUC is commonly meant concentration integrated over time. By half-life is commonly meant how long it takes for the measured level to halve. What is called bioavailability is dose-corrected exposure relative to a reference, in per cent. For orientation: pKa means the negative logarithm of the acid dissociation constant.

Series [1] can be described thus: Lipophilicity, log D of the compound at pH 7.4. It counts as physicochemical. The following applies: buffer.
Series [2] can be described thus: Permeability of the compound by PAMPA. Format: ADME. The settings on record: read-out: permeability. In general terms: The PAMPA barrier holds no transporters, so it reflects passive diffusion.
A short description of series [3]: Clearance in cynomolgus monkey. The settings on record: in vivo. Format: ADME, organism-based, Macaca fascicularis.
For a further series, the system named is Rattus norvegicus. Kind of series: Dose normalized AUC in po dosed rat. It counts as ADME, organism-based. The following applies: in vivo.
A further series concerns Cynomolgus monkey. Kind of series: Dose normalized AUC in po dosed cynomolgus monkey. Format: ADME, organism-based, Macaca fascicularis. The settings on record: in vivo.
The nature of series [4]: Half life in po dosed rat. Format: ADME, organism-based. The following applies: in vivo.
Series [5] is described as follows: Half life in cynomolgus monkey. It counts as ADME, organism-based, Macaca fascicularis. The settings on record: in vivo.
Series [6] in a line: Volume of distribution at steady state in cynomolgus monkey. It counts as ADME, organism-based, Macaca fascicularis. The following applies: in vivo, read-out: Vdss.
The nature of series [7]: Oral bioavailability in rat. It counts as ADME, organism-based. The following applies: in vivo.
The nature of series [8]: Dissociation constant, pKa of the compound. Format: physicochemical.
A further series has as its system Phospholipidosis. In words: In vitro phospholipidosis. Format: ADME, cell-based. The following applies: human, hepg2.
A short description of series [9]: Volume of distribution at steady state in rat. Format: ADME, organism-based. The settings on record: in vivo, read-out: Vdss.
Series [10] can be described thus: Oral bioavailability in cynomolgus monkey. It counts as ADME, organism-based, Macaca fascicularis. The following applies: in vivo.
Series [11] is described as follows: Clearance in rat. Format: ADME, organism-based. The settings on record: in vivo.

Regarding `COc1ccc(NC(=O)[C@H]2CN(S(C)(=O)=O)C[C@@H]2C(=O)Nc2ccc(-n3ccccc3=O)cc2F)cc1`, the logD in series [1] was 1.19.
Still for that read-out and setting: the result for `CS(=O)(=O)N1C[C@H](C(=O)Nc2ccc(Cl)cc2)[C@@H](C(=O)Nc2ccc(-n3ccccc3=O)cc2F)C1` reads 2.17; that for `CC(=O)N1C[C@H](C(=O)Nc2ccc(Cl)cc2)[C@@H](C(=O)Nc2ccc(-n3ccccc3=O)cc2F)C1`, 1.8.
Take `CS(=O)(=O)N1C[C@H](C(=O)Nc2ccc(Cl)cc2)[C@@H](C(=O)Nc2ccc(N3CCOCC3=O)cc2)C1`: the Papp in [2] came out at 0.46 ×10⁻⁶ cm/s.
`CCS(=O)(=O)N1C[C@H](C(=O)Nc2ccc(Cl)cc2)[C@@H](C(=O)Nc2ccc(-n3ccccc3=O)cc2F)C1`: the logD in series [1] came out at 2.44.
Still for that read-out and setting: the figure for `O=C(Nc1ccc(Cl)cc1)[C@H]1CN(CCO)C[C@@H]1C(=O)Nc1ccc(-n2ccccc2=O)cc1F` is 1.8; for `COC(=O)N1C[C@H](C(=O)Nc2ccc(Cl)cc2)[C@@H](C(=O)Nc2ccc(-n3ccccc3=O)cc2F)C1` it is 2.43.
The compound `O=C(Nc1ccc(Cl)cc1)[C@H]1CN(CC(F)F)C[C@@H]1C(=O)Nc1ccc(-n2ccccc2=O)cc1F` came in with a logD in [1] of 2.69.
In turn, `NS(=O)(=O)N1C[C@H](C(=O)Nc2ccc(Cl)cc2)[C@@H](C(=O)Nc2ccc(-n3ccccc3=O)cc2F)C1` returned a logD in series [1] of 1.83.
Still for that read-out and setting: the figure for `O=C(Nc1ccc(Cl)cc1)[C@H]1CN(CC(F)(F)F)C[C@@H]1C(=O)Nc1ccc(-n2ccccc2=O)cc1F` is 3.2; for `O=C(Nc1ccc(Cl)cc1)[C@H]1CN(S(=O)(=O)CC(F)(F)F)C[C@@H]1C(=O)Nc1ccc(-n2ccccc2=O)cc1F` it is 2.68; for `CN(C)S(=O)(=O)N1C[C@H](C(=O)Nc2ccc(Cl)cc2)[C@@H](C(=O)Nc2ccc(-n3ccccc3=O)cc2F)C1` it is 2.62.
On the same count and under the same terms, the result for `CC(C)S(=O)(=O)N1C[C@H](C(=O)Nc2ccc(Cl)cc2)[C@@H](C(=O)Nc2ccc(-n3ccccc3=O)cc2F)C1` reads 2.81; that for `CCOC(=O)N1C[C@H](C(=O)Nc2ccc(Cl)cc2)[C@@H](C(=O)Nc2ccc(-n3ccccc3=O)cc2F)C1`, 2.57; that for `O=C(Nc1ccc(Cl)cc1)[C@H]1CN(C(=O)N2CCCC2)C[C@@H]1C(=O)Nc1ccc(-n2ccccc2=O)cc1F`, 2.78.
Compound `CCCOC(=O)N1C[C@H](C(=O)Nc2ccc(Cl)cc2)[C@@H](C(=O)Nc2ccc(-n3ccccc3=O)cc2F)C1` gave a logD in series [1] of 3.06.
Still for that read-out and setting: the result for `CCCS(=O)(=O)N1C[C@H](C(=O)Nc2ccc(Cl)cc2)[C@@H](C(=O)Nc2ccc(-n3ccccc3=O)cc2F)C1` reads 2.94; that for `CS(=O)(=O)N1C[C@H](C(=O)Nc2ccc(Cl)cn2)[C@@H](C(=O)Nc2ccc(-n3ccccc3=O)cc2F)C1`, 1.46.
On to `CCS(=O)(=O)N1C[C@H](C(=O)Nc2ccc(Cl)cn2)[C@@H](C(=O)Nc2ccc(-n3ccccc3=O)cc2F)C1`, for which the clearance is 5.5 mL/min/kg in series [3] and 1.3 mL/min/kg in [11]. Besides, the exposure (AUC) with Rattus norvegicus came to 3300 ng·h/mL; with Cynomolgus monkey, 230 ng·h/mL. Besides, the half-life is 1.1 h in series [4] and 1.9 h in series [5]. The Vd in series [6] came out at 0.46 L/kg; in [9] it was 0.04 L/kg. The bioavailability in series [7] was 24%; in series [10], 9%. In [8], this compound yielded a pKa of 2.99. Moreover, in series [1], the logD is 1.77. The Phospholipidosis result with Phospholipidosis is given as “Not Active”.
Consider `O=C(Nc1ccc(Cl)cn1)[C@H]1CN(CC(F)F)C[C@@H]1C(=O)Nc1ccc(-n2ccccc2=O)cc1F`, for which the clearance in series [3] was 6.4 mL/min/kg; in series [11], 2.1 mL/min/kg. The AUC with Rattus norvegicus came out at 10000 ng·h/mL; in the series with Cynomolgus monkey it was 1700 ng·h/mL. Moreover, the figures for the half-life in series [4] and in [5] were 1.3 h and 6.3 h, respectively. Besides, the Vd in [6] came out at 0.54 L/kg; in [9], 0.18 L/kg. Moreover, the bioavailability in [7] was determined as 100%; in series [10] it was 65%. Moreover, in [8], the pKa worked out at 4.79. The pH-dependent lipophilicity (logD) in series [1] was 2.2. For the same compound, the Phospholipidosis entry in the series on Phospholipidosis is recorded as “Not Active”.
In series [1], `O=C(Nc1ccc(Cl)cn1)[C@H]1CNC[C@@H]1C(=O)Nc1ccc(-n2ccccc2=O)cc1F` showed a logD of 0.63.
On to `CC(C)N1C[C@H](C(=O)Nc2ccc(Cl)cn2)[C@@H](C(=O)Nc2ccc(-n3ccccc3=O)cc2F)C1`, for which the clearance in series [3] was 17 mL/min/kg; in series [11], 4.2 mL/min/kg. Further, the AUC was 900 ng·h/mL with Rattus norvegicus and 820 ng·h/mL in the series with Cynomolgus monkey. Moreover, the half-life in series [4] was 2.9 h; in series [5], 4.7 h. The Vd in series [6] was found to be 1.6 L/kg; in [9] it was 0.47 L/kg. The bioavailability in series [7] amounted to 39%; in [10], 80%. Also, the pKa in series [8] was determined as 7.55. In series [1], the logD amounted to 1.86. Besides, the Phospholipidosis entry in the series with Phospholipidosis is recorded as “Active”.
Consider `COC(=O)N1C[C@H](C(=O)Nc2ccc(Cl)cn2)[C@@H](C(=O)Nc2ccc(-n3ccccc3=O)cc2F)C1`, for which the clearance in series [3] came to 1.8 mL/min/kg; in series [11], 7.3 mL/min/kg. In addition, the AUC in the series on Rattus norvegicus amounted to 2300 ng·h/mL; with Cynomolgus monkey it was 6700 ng·h/mL. The half-life in series [4] was 1.5 h; in [5], 5 h. In addition, the Vd in series [6] is 0.44 L/kg; in [9], 0.42 L/kg. Besides, the values for the bioavailability in series [7] and in series [10] were 100% and 64%, respectively. Besides, the pKa in series [8] was 2.75. The same compound gave a logD in [1] of 2.02. The Phospholipidosis entry in the series on Phospholipidosis is listed as “Not Active”.
In [1], `O=C(Nc1ccc(Cl)cn1)[C@H]1CN(CC(F)(F)F)C[C@@H]1C(=O)Nc1ccc(-n2ccccc2=O)cc1F` came in with a logD of 2.62.
In turn, `CS(=O)(=O)N1C[C@H](C(=O)Nc2ccc3[nH]ccc3c2)[C@@H](C(=O)Nc2ccc(-n3ccccc3=O)cc2F)C1` yielded a logD in [1] of 1.07.
For the compound `COc1ccc(NC(=O)[C@H]2CN(S(C)(=O)=O)C[C@@H]2C(=O)Nc2ccc(-n3ccccc3=O)cc2F)cc1Cl`, the logD in [1] stood at 1.9.
Compound `COc1ccc(NC(=O)[C@H]2CN(S(C)(=O)=O)C[C@@H]2C(=O)Nc2ccc(-n3ccccc3=O)cc2F)cc1F` returned a log distribution coefficient (logD) in series [1] of 0.56.
On the same count and under the same terms, the figure for `CS(=O)(=O)N1C[C@H](C(=O)Nc2ccc(OC(F)(F)F)cc2)[C@@H](C(=O)Nc2ccc(-n3ccccc3=O)cc2F)C1` is 2.36; for `CS(=O)(=O)N1C[C@H](C(=O)Nc2ccc(Cl)c(F)c2)[C@@H](C(=O)Nc2ccc(-n3ccccc3=O)cc2F)C1` it is 2.37; for `CS(=O)(=O)N1C[C@H](C(=O)Nc2ccc3[nH]ncc3c2)[C@@H](C(=O)Nc2ccc(-n3ccccc3=O)cc2F)C1` it is 0.5.

The record behind these values is ChEMBL document CHEMBL1221236, “Discovery of a factor Xa inhibitor (3R,4R)-1-(2,2-difluoro-ethyl)-pyrrolidine-3,4-dicarboxylic acid 3-[(5-chloro-pyridin-2-yl)-amide] 4-[[2-fluoro-4-(2-oxo-2H-pyridin-1-yl)-phenyl]-amide] as a clinical candidate” (Bioorg Med Chem Lett, 2010).
